In US9540325B2, “N1-cyclic amine-N5-substituted phenyl biguanide derivatives, methods of preparing the same and pharmaceutical composition comprising the same” (Immunomet Therapeutics, Inc., priority 2011, dated 2017):

Columns and labels:
[1] = tested on: HCT116 cells; experiment: Measurement of effect of inhibiting cancer cell proliferation (MTT); format: cell-based, human; details: for inhibition at 100 µM: HCT-116, 100 μM, read-out: Cell Growth Inhibition (%) at 100 μM
Summary of the method: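 HCT116 cells (~5,000/well, DMEM with 10% FBS) treated 48 h with compound at 0.39–100 μM, metformin hydrochloride control at 0.1–25 mM. Viability by MTT (3 h, formazan in DMSO, A560) relative to untreated wells; GIC50 from the viability curve, also viability at 100 μM.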

[2] = tested on: Snail; experiment: EMT inhibitory effect by inhibition of Snail expression (immunoblotting) in MCF7 cells; format: cell-based, human; details: MCF7, 48 hours, untreated control = 100%
Procedure: Cells undergoing EMT owing to various cytokines and growth factors can acquire motility and thus move a distance to form tumors in new tissues. Therefore, the metastasis of cancer cells can be inhibited by controlling expression of EMT-related transcription factors to hinder EMT. Based on these facts, the activities of biguanide derivatives that inhibit Snail expression, which is a transcription factor inducing EMT in the MCF7 cell line derived from human breast cancer, were measured and simple experimental methods are described, as follows.
MCF7 cells derived from human breast cancer (commercially available from Korean Cell Line Bank) were cultured in a DMEM medium supplemented with 10% (v/v) fetal bovine serum (commercially available from Gibco Life Technologies (US)), put into a 6-well plate so that the number of cultured cells could amount to approximately 5×10^5 cells per well, and then incubated in an incubator supplied with 5% CO2 (culture temperature: 37° C., pH: 7.0 to 7.4). The culture media were treated with phenformin hydrochloride and the compounds synthesized in the examples at contents of 1 μM and 10 μM, respectively, and then incubated for 48 hours. Metformin hydrochloride was used as the control, and the cells were treated with 1 mM and 10 mM metformin hydrochloride. After 48 hours, the cells were lysed in a cell lysis buffer containing 10 mM Tris HCl (pH7.4), 100 mM NaCl, 1 mM EDTA, 1 mM EGTA, 1 mM NaF, 20 mM Na4P2O7, 2 mM Na3VO4, 1% TritonX-100, 10% glycerol, 0.5% deoxycholate and 1 mM PMSF. Then, 25 μg of the cell lysate was electrophoresized in an SDS-PAGE gel, and then transferred to a […] membrane (commercially available from Amersham Life Science). The membrane reacted with rat monoclonal anti-human Snail (commercially available from Cell signaling Technology) or mouse monoclonal anti-β-actin (commercially available from Santa cruz Biotechnology), and unbound antibodies were removed. In this case, anti-β-actin was used as the antibody to ensure that the amount of proteins loaded into the SDS-PAGE gel is identical. The membrane was reacted again with a secondary antibody, anti-rat IgG (commercially available from Cell signaling Technology) or anti-mouse IgG (commercially available from Santa Cruz Biotechnology). Finally, the antibody bound to the membrane was detected using an ECL Plus system (commercially available from Amersham Life Science). Also, the expression level of Snail with respect to β-actin was analyzed using a Scion image analysis program. Here, when it was assumed that the expression level of the untreated control was 100%, the expression level of the Snail by treatment with the compounds synthesized in the examples was indicated as a percentage (%).

SMILES	inhibition at 100 µM ([1]; Homo sapiens, 48 hours) [%]	GI50 ([1]; Homo sapiens, HCT-116, 48 h) [µM]	Snail Expression Rate (%) ([2]; 1 μM)	Snail Expression Rate (%) ([2]; 10 μM)	melting point [°C]	GI50 ([1]; 48 hours, hydrochloride) [µM]
Cl.N=C(NC(=N)N1CCCCC1)Nc1ccc(C(F)(F)F)cc1 [Example 27, N1-piperidine-N5-(4-trifluoromethyl)phenyl biguanide hydrochloride]	97.7	6.7	52.7	13.2	273 to 274	
Cl.N=C(NC(=N)N1CCCCC1)Nc1cccc(Cl)c1 [Example 20, N1-piperidine-N5-(3-chloro)phenyl biguanide hydrochloride]	97.5	48.2	57.6	8.7	172 to 174	
Cl.N=C(NC(=N)N1CCCCCC1)Nc1cccc(Cl)c1 [Example 21, N1-azepane-N5-(3-chloro)phenyl biguanide hydrochloride]	97	41.5	83.5	29.8	213 to 215	
Cl.N=C(NC(=N)N1CCCC1)Nc1ccc(C(F)(F)F)cc1 [Example 26, N1-pyrrolidine-N5-(4-trifluoromethyl)phenyl biguanide hydrochloride]	97.6		57.2	14.6	283 to 284	22.7
